Measured values as given in patent US8993256B2, “Fusion proteins and polynucleotide constructs to measure protein turn-over” (priority 2006, dated 2015).

B1: BDNF: growth factor used for translational induction (protein, UniProt P23560 19-247, looked up)
Neurotrophic factor BDNF …: APMKEANIRGQGGLAYPGVRTHGTLESVNGPKAGSRGLTSLADTFEHVIEELLDEDQKVRPNEENNKDADLYTSRVMLSSQVPLEPPLLFLLEEYKNYLDAANMSMRVRRHSDPARRGELSVCDSISEWVTAADKKTAVDMSGGTVTVLEKVPVSKGQLKQYFYETKCNPMGYTKEGCRGIDKRHWNSQCRTTQSYVRALTMDSKKRIGWRFIRIDTSCVCTLTIKRGR

Tests used:
[1] = molecular target: HSV-TimeSTAMPt-HA-dCaMKII (Hepatitis C virus genotype 1a, UniProt P27958); assay type: in vivo, Drosophila melanogaster; conditions: adult flies, brains analyzed 6 hours after BILN-2061
HSV-TimeSTAMPt-HA-dCaMKII, sequence (P27958 1027-1208): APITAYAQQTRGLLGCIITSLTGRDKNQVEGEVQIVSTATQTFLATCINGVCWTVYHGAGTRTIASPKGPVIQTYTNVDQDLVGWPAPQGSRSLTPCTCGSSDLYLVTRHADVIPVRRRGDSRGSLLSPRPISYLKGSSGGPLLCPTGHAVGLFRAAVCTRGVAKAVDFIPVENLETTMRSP
Description: Homozyous transformed lines were established from single progeny of embryos injected with pUAST-HSV-TimeSTAMPt-HA-dCaMKII or pUAST-HSV-TimeSTAMPa-HA-dCaMKII. […] Male homozygotes with third-chromosome insertions were crossed to elav-GAL4; UAS-tubulin-GFP; + females, and the male elavGAL4/Y; UAS-tubulin-GFP/+; HSV-TimeSTAMP-HA-dCaMKII/+ progeny were used for experiments within 2 days post-eclosion.
For experiments involving HSV-TimeSTAMPt-HA-dCaMKII, flies were anesthesized by carbon dioxide, then a hole was punctured in the medial ocellus region using a glass micropipette with a 10 μm bore and a 25 nL drop of 2 mM BILN-2061 in 20% DMSO 5% Cremophor EL in Hank's buffered saline solution (HBSS) was placed over the region. […] For HSV-TimeSTAMPa-HA-dCaMKII, flies were starved for 12 hours with only water, then placed in a vial with an emulsion of 30% (w/v) yeast, 30% (v/v) glycerol, 30% (v/v) water, 5% green food coloring, 5% dimethylformamide, and 500 μM BILN-2061. […] For analysis, flies were decapitated and brains were simultaneously dissected and fixed in HBSS with 4% paraformaldehyde and 0.2% Triton X-100 for 40 minutes at room temperature. Brains were processed for immunocytochemistry by standard methods and imaged on a Zeiss LSM510 or LSM5Live confocal microscope.
Transgenic flies were generated expressing this fusion protein in all neurons.

HCV NS3 protease [2] = molecular target: HCV NS3 protease (Hepatitis C virus genotype 1a, UniProt P27958, T1080A); assay type: cell-based; conditions: TimeSTAMPa; hippocampal neurons 18 DIV, 9 DPT
HCV NS3 protease (Hepatitis C virus genotype 1a, UniProt P27958, T1080A), sequence (P27958 1027-1208 T1080A): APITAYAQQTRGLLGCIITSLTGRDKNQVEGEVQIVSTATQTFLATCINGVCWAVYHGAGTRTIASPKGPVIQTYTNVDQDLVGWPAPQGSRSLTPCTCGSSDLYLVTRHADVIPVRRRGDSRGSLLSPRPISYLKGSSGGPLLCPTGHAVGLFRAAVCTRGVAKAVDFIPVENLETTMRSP
Description: (§1) Hippocampal neurons were dissected from postnatal day 0 or 1 rat pups and cultured in Neurobasal medium supplemented with B27 and glutamine. For immunoblotting experiments, neurons were transfected prior to plating using the Amaxa Nucleofector protocol. For other experiments, neurons were transfected at 7-10 DIV by calcium phosphate.
(§2) To recapitulate endogenous mechanisms of mRNA localization and translation, the 5′ and 3′ untranslated regions of each gene were included in all constructs.

HCV NS3 protease [3] = molecular target: HCV NS3 protease (Hepatitis C virus genotype 1a, UniProt P27958); assay type: cell-based; conditions: TimeSTAMPt; hippocampal neurons 18 DIV, 9 DPT
HCV NS3 protease (Hepatitis C virus genotype 1a, UniProt P27958), sequence (P27958 1027-1208): as the sequence (P27958 1027-1208) above
Description: as §1, §2

HCV NS3 protease [4] = assay type: cell-based, hepatitis C virus; conditions: HEK293 cells grown with or without BILN-2061 (0, 1 μM, or 10 μM)
Description: For testing of the drug-regulatable epitope tag concept by immunoblotting, a construct of linear fusions of PSD-95, HCV NS3 protease flanked on both sides by cleavage sites, an HA epitope tag, and the cyan fluorescent protein (CFP) was used.
For each construct, HEK293 cells were transfected with Lipofectamine 2000, grown with or without the NS3 protease inhibitor BILN-2061 (Lamarre et al., 2003), and immunoblotted after boiling/SDS lysis with anti-PSD-95 to differentiate uncleaved and cleaved products by molecular weight.
Experiments using the constructs of the disclosure were performed in transiently transfected mammalian cells by immunoblotting.

[5] = tested on: new protein synthesis in neurons; assay: Dependence of TimeSTAMP tag appearance on new protein synthesis in neurons; assay type: cell-based, rat; conditions: for HA-tagged Arc appearing after incubation in 10 μM BILN for 6 hours: Arc-TimeSTAMPa-HA neurons, 7 DIV, simultaneous treatment (cycloheximide 50 μg/mL or BDNF)
Description: as §1, §2

Molecule	HSV labelling for newly synthesized dCaMKII in fly brain [1]	HA immunofluorescence induction (HCV NS3 protease [2])	HA immunofluorescence induction (HCV NS3 protease [3])	Cleavage of constructs containing the NS3 domain alone without NS4A cofactor (immunoblot) (HCV NS3 protease [4])	Synaptic HA staining of PSD-95-GFP-TimeSTAMPa-HA after 6 hours of BILN-2061 ([5]; 50 μg/mL cycloheximide, 18 DIV neurons, 9 DPT)	HA-tagged Arc appearing after incubation in 10 μM BILN for 6 hours [5]
COc1ccc2c(O[C@@H]3C[C@H]4C(=O)N[C@]5(C(=O)O)C[C@H]5/C=C\CCCCC[C@H](NC(=O)OC5CCCC5)C(=O)N4C3)cc(-c3csc(NC(C)C)n3)nc2c1 [BILN-2061]	HSV labelling for newly synthesized dCaMKII is present in the mushroom bodies	20 fold	121 fold	inhibited		
C[C@@H]1C[C@@H]([C@H](O)CC2CC(=O)NC(=O)C2)C(=O)[C@@H](C)C1 [cycloheximide]					No staining	blocked
B1						increased
